The source made the active and inactive calls.
Columns and labels:
Type in all cases: functional, organism-based
Staphylococcus aureus = test: Antibacterial activity against Staphylococcus aureus COL
Streptococcus pyogenes = test: Antibacterial activity against Streptococcus pyogenes
Escherichia coli = test: Antibacterial activity against Escherichia coli O78

Measured: Activity

O=C(N[C@H](CO)[C@H](O)c1ccc([N+](=O)[O-])cc1)C(Cl)Cl
active: all assays above

Source: ChEMBL document CHEMBL1144461, “Targeted drug-carrying bacteriophages as antibacterial nanomedicines” (Antimicrob Agents Chemother, 2007)
